In publication PMC6400216 (Angewandte Chemie (International ed. in English), 2017):
Bridge positions count the residues as written; N and C are the ends. Square brackets hold non-standard residues; d marks the D form. Peptide text beside a SMILES is read from it. NMeF = CN[C@@H](Cc1ccccc1)C(=O)O; NMeNle = CCCC[C@H](NC)C(=O)O; NMeA = CN[C@@H](C)C(=O)O; Sar = CNCC(=O)O

Experiments:
PD-L1 [1] = test: X-ray crystallography of PD-L1/peptide complexes; assay type: binding; conditions: crystal structures of PD-L1/peptide-71 (2.5 Å) and PD-L1/peptide-57 (below 1 Å)
PD-L1 [2] = test: differential scanning fluorimetry; assay type: binding; conditions: DSF; for melting temperature of PD-L1 (Tm): PD-L1 alone Tm 37.6°C; for stabilization of PD-L1 against thermal induced unfolding: relative to PD-L1 alone (Tm 37.6°C)

SMILES	binding site on PD-L1 (PD-L1 [1])	melting temperature of PD-L1 (Tm) (PD-L1 [2]) [°C]	stabilization of PD-L1 against thermal induced unfolding (PD-L1 [2]) [°C]
CCCC[C@H]1C(=O)N(C)[C@@H](CCCC)C(=O)N[C@@H](CCCNC(=N)N)C(=O)N[C@H](C(=O)NCC(N)=O)CSCC(=O)N[C@@H](Cc2ccccc2)C(=O)N(C)[C@@H](C)C(=O)N[C@@H](CC(N)=O)C(=O)N2CCC[C@H]2C(=O)N[C@@H](Cc2c[nH]cn2)C(=O)N[C@@H](CC(C)C)C(=O)N(C)CC(=O)N[C@@H](Cc2c[nH]c3ccccc23)C(=O)N[C@@H](CO)C(=O)N[C@@H](Cc2c[nH]c3ccccc23)C(=O)N1C [peptide-57] ({CH2CO}-F[NMeA]NPHL[Sar]WSW[NMeNle][NMeNle]RCG-NH2; thioether N-14; N-terminus and C-terminus assumed)	bind to PD-L1 partially at the site of the PD-1 interaction	51.6	14
CCCC[C@H]1C(=O)N(C)CC(=O)N[C@@H](CC(=O)O)C(=O)N[C@@H](C(C)C)C(=O)N(C)[C@@H](Cc2ccccc2)C(=O)N[C@@H](Cc2ccc(O)cc2)C(=O)N(C)CC(=O)N[C@@H](Cc2c[nH]c3ccccc23)C(=O)N[C@@H](Cc2ccc(O)cc2)C(=O)N[C@@H](CC(C)C)C(=O)N[C@H](C(=O)NCC(N)=O)CSCC(=O)N[C@@H](Cc2ccccc2)C(=O)N(C)[C@@H](Cc2ccccc2)C(=O)N1C [peptide-71] ({CH2CO}-F[NMeF][NMeNle][Sar]DV[NMeF]Y[Sar]WYLCG-NH2; thioether N-13; N-terminus and C-terminus assumed)	bind to PD-L1 partially at the site of the PD-1 interaction	56.6	19
